Test results as given in publication PMC6697720, “Saturation of acyl chains converts cardiolipin from an antagonist to an activator of Toll-like receptor-4” (Cellular and Molecular Life Sciences: CMLS, 2019).

How the values were obtained:
[1] = biological target: T1, human TLR4, MD2, and CD14 (Homo sapiens, UniProt O00206+Q9Y6Y9); test: NF-κB luciferase reporter activation by CLs in HEK293 cells transfected with human TLR4, MD2 and CD14; format: cell-based; settings: for activation of human TLR4 (NF-κB): 6 h incubation
T1 construct: expressed in transfected cells; host or cells: HEK293 (ATCC CRL1573), transient transfection with jetPEI
T1 sequence (O00206 24-839): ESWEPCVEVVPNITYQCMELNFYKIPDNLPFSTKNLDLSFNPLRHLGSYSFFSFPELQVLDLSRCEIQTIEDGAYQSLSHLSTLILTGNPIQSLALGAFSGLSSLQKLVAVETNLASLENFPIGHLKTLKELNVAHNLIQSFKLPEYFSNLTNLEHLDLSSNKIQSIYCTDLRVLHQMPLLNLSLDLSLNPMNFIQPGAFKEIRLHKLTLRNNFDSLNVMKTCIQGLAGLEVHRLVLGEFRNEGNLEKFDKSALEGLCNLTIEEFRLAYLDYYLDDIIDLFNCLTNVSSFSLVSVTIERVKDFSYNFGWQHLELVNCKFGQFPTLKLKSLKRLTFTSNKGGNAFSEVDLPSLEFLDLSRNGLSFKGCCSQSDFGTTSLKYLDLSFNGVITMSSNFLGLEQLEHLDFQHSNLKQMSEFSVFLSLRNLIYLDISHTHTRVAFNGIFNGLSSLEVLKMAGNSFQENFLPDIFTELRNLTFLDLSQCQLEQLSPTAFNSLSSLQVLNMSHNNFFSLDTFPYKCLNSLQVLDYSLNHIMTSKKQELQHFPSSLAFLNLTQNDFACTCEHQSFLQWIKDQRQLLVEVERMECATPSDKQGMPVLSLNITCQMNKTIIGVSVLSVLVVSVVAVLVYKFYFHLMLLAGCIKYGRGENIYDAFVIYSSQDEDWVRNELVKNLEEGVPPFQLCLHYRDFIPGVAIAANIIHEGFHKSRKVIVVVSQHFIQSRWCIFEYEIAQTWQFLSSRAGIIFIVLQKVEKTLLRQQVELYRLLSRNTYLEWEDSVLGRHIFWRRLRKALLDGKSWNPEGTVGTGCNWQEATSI
T1 sequence (Q9Y6Y9 19-160): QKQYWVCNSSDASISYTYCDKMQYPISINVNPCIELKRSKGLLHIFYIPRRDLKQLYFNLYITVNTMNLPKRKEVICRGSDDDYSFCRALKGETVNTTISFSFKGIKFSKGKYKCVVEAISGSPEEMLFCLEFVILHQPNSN
Method: (§1) Cells were seeded at 4 × 10^4 cells/mL in 96-well plates (200 μL/well) and transiently transfected 4 days later. Expression vectors containing an NF-κB transcription reporter vector-encoding firefly luciferase (10 ng/well pNF-κB-luc from Clontech), and a constitutively active reporter vector-encoding Renilla luciferase (5 ng/well phRG-TK; Promega), together with empty vector (pcDNA3.1 from Invitrogen Cat. N. V79020) and cDNA encoding human membrane CD14 (3 ng/well) and human or murine TLR4 and MD2 (3 ng/well) were mixed with jetPEI (Polyplus transfection Cat.N. 101-10N) and incubated with cells according to the manufacturer’s instructions.
(§2) After treatment supernatants were discarded, cells were washed with PBS and lysed with passive lysis buffer (Promega Cat.N. E1941). Luciferase and Renilla activity on cell lysates were quantified on a BioTek Synergy HT microplate reader using home-made luciferase reagent (20 mM Tricine, 2.67 mM MgSO4·7H2O, 0.265 mM (MgCO3)4Mg(OH)2·5H2O, 0.1 mM EDTA, 33.3 mM DTT, 530 μM ATP, 270 μM Acetyl Coenzyme A (Lithium salt), 470 μM luciferin (Biosynth), pH 7.8, diluted two times in water before use), or coelenterazine (Biosynth) dissolved in ethanol at 1 mg/mL and diluted 500 times in PBS before use as previously described. Firefly and Renilla luciferase activity on cell lysates were normalized, and data were expressed as fold induction as compared to unstimulated conditions.
The first signaling event of these pathways is NF-κB activation through TLR4 activation. To investigate how the individual CD14, TLR4, and MD2 proteins contribute to the responses of cells to CL, we used the HEK transfection model where we can control which protein (including from different species) may be added to the cells and their contribution to CL activation of Nf-κB [21, 30, 31]. We transfected HEK293 cells with human or murine CD14 and MD2 with or without TLR4 and incubated them with saturated CLs for 6 h (Fig. 4a). All three saturated CLs activated murine TLR4. By contrast, only C16:0 and C18:0 activated the human receptor. To further confirm the role of TLR4, we compared TNF-α secretion induced by C14:0 CL in wild-type (WT) or TLR4 knock out (TLR4 KO) immortalized BMDMs. Both LPS and C14:0 CL induced TNF-α secretion in WT but not in TLR4-KO BMDMs (Fig. 4b). TLR4-KO BMDMs were normally responsive to TLR2 ligand Pam3CSK4 (data not shown).
Fig. 4 Saturated CLs are TLR4 agonists. a HEK293 cells were transfected with plasmids encoding murine TLR4, MD2, and CD14 (mTLR4), human TLR4, MD2, and CD14 (hTLR4) or with empty pcDNA3.1 plasmid, MD2 and CD14 (w/o TLR) together with a luciferase reporter plasmid dependent on NF-κB activation and a constitutively active reporter vector-encoding renilla luciferase. Two days after transfection, cells were incubated for 6 h with medium alone (Ctrl) or the indicated amount of CLs or LPS. Luciferase and renilla were quantified in cell lysate, normalized and reported here as fold induction as compared to control. Unpaired t test: differences compared to the control are not significant if p > 0.05(no symbol); *p ≤ 0.005. b WT and TLR4-KO iBMDM cells were incubated overnight with medium (c), LPS or C14:0 CL. For each condition, mTNF-α was measured by ELISA assay. Unpaired t test: differences with respect to the control are not significant if p > 0.05(no symbol); *p ≤ 0.0001. Each bar represents the mean + standard deviation of three biological replicates (n = 3). […]

[2] = biological target: T2, murine TLR4, MD2, and CD14 (Mus musculus, UniProt Q9JHF9+Q9QUK6); test: NF-κB luciferase reporter activation by CLs in HEK293 cells transfected with murine TLR4, MD2 and CD14; format: cell-based; settings: 6 h incubation
T2 construct: expressed in transfected cells; host or cells: HEK293 (ATCC CRL1573), transient transfection with jetPEI
T2 sequence (Q9QUK6 26-835): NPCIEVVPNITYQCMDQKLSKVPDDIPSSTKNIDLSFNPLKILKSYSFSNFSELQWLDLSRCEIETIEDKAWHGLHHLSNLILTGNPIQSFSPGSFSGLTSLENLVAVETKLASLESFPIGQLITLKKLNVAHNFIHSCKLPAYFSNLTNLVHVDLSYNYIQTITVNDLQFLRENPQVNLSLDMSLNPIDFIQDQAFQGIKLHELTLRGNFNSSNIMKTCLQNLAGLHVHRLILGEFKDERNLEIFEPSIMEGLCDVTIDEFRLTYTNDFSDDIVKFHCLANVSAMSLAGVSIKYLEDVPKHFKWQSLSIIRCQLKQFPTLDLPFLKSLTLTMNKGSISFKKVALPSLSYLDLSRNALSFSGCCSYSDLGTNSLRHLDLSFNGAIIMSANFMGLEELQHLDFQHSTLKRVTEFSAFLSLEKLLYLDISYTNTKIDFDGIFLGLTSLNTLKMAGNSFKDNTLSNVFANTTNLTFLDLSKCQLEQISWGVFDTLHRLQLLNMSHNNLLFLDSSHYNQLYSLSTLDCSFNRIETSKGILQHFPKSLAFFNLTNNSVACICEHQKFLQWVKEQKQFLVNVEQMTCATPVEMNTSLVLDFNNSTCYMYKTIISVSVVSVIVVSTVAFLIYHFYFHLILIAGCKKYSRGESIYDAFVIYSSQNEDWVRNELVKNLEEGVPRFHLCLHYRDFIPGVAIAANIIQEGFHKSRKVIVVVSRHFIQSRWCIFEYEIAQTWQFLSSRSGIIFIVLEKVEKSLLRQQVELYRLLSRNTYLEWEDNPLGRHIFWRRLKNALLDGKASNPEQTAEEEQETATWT
T2 sequence (Q9JHF9 19-160): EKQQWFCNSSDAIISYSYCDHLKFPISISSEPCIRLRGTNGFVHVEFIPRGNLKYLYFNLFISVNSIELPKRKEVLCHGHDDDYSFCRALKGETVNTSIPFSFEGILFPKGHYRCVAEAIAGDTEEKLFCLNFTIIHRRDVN
Method: as §1
as §2, with “Firefly and Renilla luciferase activity on cell lysates were normalized, and data were expressed as fold induction as compared to unstimulated conditions.” left out

Row | SMILES | activation of human TLR4 (NF-κB) [1] | NF-κB induction in HEK293 cells transfected with TLR4 in the absence of CD14 or MD2 ([1]; hTLR4 without CD14 or without MD2, 6 h) | activation of murine TLR4 (NF-κB) [2]
1 | CCCCCCCCCCCCCCCCCC(=O)OC[C@H](COP(=O)(O)OCC(O)COP(=O)(O)OC[C@@H](COC(=O)CCCCCCCCCCCCCCCCC)OC(=O)CCCCCCCCCCCCCCCCC)OC(=O)CCCCCCCCCCCCCCCCC (stereo partly shown) [C18:0 CL] | activated | not induced | –
2 | CCCCCCCCCCCCCC(=O)OC[C@H](COP(=O)(O)OCC(O)COP(=O)(O)OC[C@@H](COC(=O)CCCCCCCCCCCCC)OC(=O)CCCCCCCCCCCCC)OC(=O)CCCCCCCCCCCCC (stereo partly shown) [C14:0 CL] | not | – | agonist
